Source: a melting point compilation (Tetko et al.; mined from patent text by program, amines drawn as free bases though some values may be those of a salt)

`Cc1nc(CC2OC(COC(=O)c3ccccc3)C(O)C2O)n2nc(Cl)ccc12` (configuration not stated) gave a melting point of 155 to 157 °C. Compound `Cc1cc(-n2ncnn2)cc2ccc(=O)[nH]c12` has a melting point of 264 to 266 °C. Work on `O=C(Nn1ccc2ccccc21)C1=CCCN(CCN2CCCCC2)C1` yielded a melting point of 65 °C. Work on `CCOCc1nc2c(N)nc3ccccc3c2n1CCCC(=O)OCC` yielded a melting point of 129 to 131 °C. In the case of `O=C1c2ccccc2C(Cc2ccnc(Br)c2)(Cc2ccnc(Br)c2)c2ccccc21`, the melting point is reported as 182 to 183 °C. `Cc1ccc(Cn2c(-c3ccccc3)nc(Cl)c2CO)cc1` gave a melting point of 173 to 175 °C. In the case of `O=S1(=O)c2cccc3cccc(c23)N1CCCCN1CC=C(c2ccc(Cl)cc2)CC1`, the melting point is reported as 12 °C. `CN(C)S(=O)(=O)c1cc(Cl)c(Cl)c(Cl)c1SCSC#N` showed a melting point of 155 to 156 °C. Work on `O=C(O)c1ccc(=O)n(CCNC(=O)c2ccccn2)c1` yielded a melting point of 266 to 268 °C. Work on `COc1ccc(CN(C)CCc2ccc(NC(=O)c3cccc4c(=O)c5c(OC)ccc(OC)c5[nH]c34)cc2)cc1OC` yielded a melting point of 196 °C. For `O=C(O)c1ccc(C2OC23Cc2ccccc2C3=O)cc1` (configuration not stated), the melting point was 220 °C. `CC(=O)c1ccc(O)c(CC#N)c1` gave a melting point of 154 to 168 °C. With `O=C(O)Cn1cc(Cc2nc3c(F)c(F)cc(F)c3s2)c2cccc(F)c21` the melting point was 194 to 196 °C. For `CCCCCN(C(=O)OC(C)(C)C)c1nc(N(C)Cc2ccccc2)c2ncn(CC(=O)O)c2n1`, the melting point was 116 to 127 °C. `CCCc1nc2c(N)nc3cc(OCc4c(C)noc4C)ccc3c2s1` showed a melting point of 178 to 180 °C. In the case of `COc1ccc(C=CC(=O)Nc2c(CCO)nc3c(C)cc(C)cc3c2-c2ccccc2Cl)cc1OC`, the melting point is reported as 115 to 116 °C. With `Cc1cc(C)c2c(c1C)OCC2=O` the melting point was 92 to 93 °C. Compound `COC(=O)c1cc(-n2c(Cl)nc(C(F)(F)F)cc2=O)c(F)cc1Cl` has a melting point of 89 to 91 °C. With `Nc1nc2ccccc2c2c1ncn2CCSc1ccccc1` the melting point was 233 to 235 °C. For `O=c1[nH]c2ncc(-c3ccc(O)cc3)nc2n1CC1CCCOC1` (configuration not stated), the melting point was 271 to 272 °C. Work on `NC(=S)Nc1ccc(Br)cn1` yielded a melting point of 242 to 243 °C. With `CC(C)(C)OC(=O)Nc1ccc(-c2cccnc2)cc1[N+](=O)[O-]` the melting point was 107 to 109 °C. Compound `O=S(=O)(N=CN1CCOCC1)c1cc(Br)cc(Br)c1` has a melting point of 195 to 197 °C. `COc1cc2c(Oc3ccc4[nH]cc(C)c4c3)ncnc2cc1OCCCN1CCCC1` showed a melting point of 75 to 77 °C. In the case of `O=C1NC(=O)c2cc(Nc3ccc(F)cc3)c(Nc3ccc(F)cc3)cc21`, the melting point is reported as > 220 °C. `Oc1ccc(Oc2cncnc2)cc1` showed a melting point of 158 °C. In the case of `Cc1ccc(C(C)(O)P(O)O)cc1` (configuration not stated), the melting point is reported as 115 °C. `Cc1c(NC(=O)c2ccc(-c3ccc(F)cc3)cc2F)ccc2cc(CN3CCCC3)cnc12` showed a melting point of 176 to 178 °C. With `Cc1cc(C(F)(F)F)cc(=O)n1C` the melting point was 80 to 82 °C. Work on `CCCC[C@H]1CC[C@H](c2ccc(OC(=O)[C@H]3CC[C@H](CCC)C3)cc2)CC1` (relative stereo) yielded a melting point of 90 °C. With `COc1ccc(SC(C)(Cc2ccccc2)C(=O)NO)cc1` (configuration not stated) the melting point was 88 °C. Compound `CC(C(=O)c1ccc2c(c1)CC(=O)N2)N1CCC(O)(Cc2ccccc2)CC1` (configuration not stated) has a melting point of 188 to 192 °C. In the case of `O=C(c1cccs1)c1cccc(O)c1C(=O)O`, the melting point is reported as 168 to 170 °C. For `O=C(c1ccc2c(c1)[C@@H](O)[C@H](Br)CCO2)c1ccccc1F` (relative stereo), the melting point was 219 to 221 °C. `O=c1c2cccc(O)c2nc(-c2ccc(OCCN3CCCCC3)cc2)n1-c1ccc(O)cc1` gave a melting point of 153 to 155 °C. `CC(C)Nc1nc2ccccn2c(=O)c1-c1ccc(NC2CCN(C(=O)OC(C)(C)C)C2)cc1` (configuration not stated) showed a melting point of 210 to 212 °C. For `COc1nsc(S(=O)(=O)c2ccccc2)c1C#N`, the melting point was 64 °C. In the case of `COC(=O)CCn1c(=O)n(CCN2CCN(c3ccccc3)CC2)c(=O)c2cscc21`, the melting point is reported as 133 to 134 °C. For `CCC(=O)Nc1ccccc1C(=O)O`, the melting point was 120 °C. Compound `O=C(CNc1ccc2[nH]c(=O)oc2c1)N1CCC(Oc2ccc(Cl)cc2)CC1` has a melting point of 180 to 183 °C. In the case of `Cn1c(=O)c2nc(C(=O)O)cn2c2ccccc21`, the melting point is reported as 267 to 268 °C. In the case of `Nc1noc(-c2cc3c(Oc4ccc(Cl)cc4)cncc3s2)n1`, the melting point is reported as 217 to 219 °C. `COc1ccccc1SC1CC(=O)N1` (configuration not stated) gave a melting point of 103 to 105 °C. Work on `Cc1nc(N2CCN(Cc3ccc(F)cc3)C2=O)sc1C(=O)NCc1ccccn1` yielded a melting point of 183 to 185 °C. With `COc1cccc(NC(=O)C(C)(C)C)c1` the melting point was 126 °C. `CS(=O)c1ccc(C2=C(c3cccc(F)c3)C(=O)C(C)(C)O2)cc1F` (configuration not stated) showed a melting point of 148 to 149 °C. For `CCCCCCCCCCCCCCOc1ccc(NC(=O)Nc2cccc(CO)c2)cc1`, the melting point was 150 to 158 °C. Compound `Cc1cc(NC(=O)c2cccc(CSc3cnccn3)c2)ccc1C(C)C` has a melting point of 69 to 73 °C. Compound `Oc1ccc2c(-c3ccccc3)coc2c1` has a melting point of 138 to 143 °C. `CCCCC(=NOCc1ccc(OCc2nc(-c3ccccc3)oc2C)cc1)C(=O)O` gave a melting point of 112 to 114 °C. In the case of `O=[N+]([O-])c1nccn1C1CCCCO1` (configuration not stated), the melting point is reported as 50 °C. Compound `COc1cc(S)c(C(C)=O)c(OC)c1` has a melting point of 57 to 59 °C. With `Cc1cc(Nc2nc(-c3ccccc3)nc3ncccc23)[nH]n1` the melting point was 234 °C. In the case of `O=[N+]([O-])c1ccc2c(cnn2Cc2ccccc2[N+](=O)[O-])c1`, the melting point is reported as 102 to 103 °C. With `COc1cc2c(Nc3ccc(Cl)cc3F)ncnc2cc1OCCN1CCNC1=O` the melting point was > 250 °C. For `Cc1cc(N)cc(C)c1S(=O)(=O)NCCSCCN`, the melting point was 150 to 160 °C. In the case of `Nc1ncc(-c2cnc3ccc(-c4ccc(OCC5(CNC(=O)C6CC6)COC5)cc4)nn23)cc1C(F)(F)F`, the melting point is reported as 223 to 225 °C. For `COc1ccc(C(N)CCO)cc1OC` (configuration not stated), the melting point was 63.5 to 65.5 °C. Work on `CC(C)(C)n1ncc(OCc2ccc(OC(F)(F)C(F)OC(F)(F)F)cc2)c(Cl)c1=O` (configuration not stated) yielded a melting point of 68 to 69 °C. Work on `CCCC1=C(C(=O)OCC)C(c2cc(OC)ccc2OC)c2c[nH]nc2N1` (configuration not stated) yielded a melting point of 169 to 170 °C. In the case of `O=C(c1ccccc1)c1ccc2nc(CS(=O)c3ccccn3)[nH]c2c1` (configuration not stated), the melting point is reported as 142 to 145 °C. `O=Cc1cn(Cc2ccc(OCc3ccccc3)cc2)nc1-c1ccc(F)cc1` gave a melting point of 97 to 98 °C. For `CC(CN1CCN(C)CC1)OC(=O)c1c[nH]c2ccccc12` (configuration not stated), the melting point was 166 °C. `OCCOCn1cc(I)c2c(Cl)ncnc21` showed a melting point of 154 to 155 °C. For `O=C(O)Cc1ccc(CCNC(=O)C2Cc3ccccc3N2S(=O)(=O)c2ccc(-c3cccc(C(F)(F)F)c3)cc2)cc1` (configuration not stated), the melting point was 110 °C. With `Oc1cc(O)c2c(c1)Oc1ccc(Br)cc1CC2` the melting point was 174 to 176 °C. Work on `O=C(C(=O)c1ccc(Cl)cc1)c1ccncc1` yielded a melting point of 119 to 120 °C. With `CCN(CC)S(=O)(=O)c1cc(Cl)c(Cl)c(Cl)c1SCCl` the melting point was 82 to 83 °C. Compound `CCOC(=O)C(C=C(C)CP(=O)(OCCCl)OCCCl)NC=O` (configuration not stated) has a melting point of 47 to 49 °C. Compound `O=C(CCC(Cl)(Cl)Cl)Nc1cccc(-c2ccnc3c(C(=O)c4cccs4)cnn23)c1` has a melting point of 189 to 191 °C. For `Oc1ccc(C2=C(c3ccccc3)CCCc3cc(OC4CCCCO4)ccc32)cc1` (configuration not stated), the melting point was 183 to 185 °C. For `FC(F)(F)c1cccc(N2CCN(c3ccc(Cl)nn3)CC2)c1`, the melting point was 149 °C. `COc1cc(NC(=O)c2ccccc2Cl)ccc1C(=O)N1CCCC(OCCNS(=O)(=O)C(F)(F)F)c2cc(Cl)ccc21` (configuration not stated) gave a melting point of 140 to 142 °C. `CCN(CC)S(=O)(=O)c1nc2ccc([N+](=O)[O-])cc2n1CC` gave a melting point of 90 to 91 °C. `CC(O)Cc1cccc(S(N)(=O)=O)c1` (configuration not stated) gave a melting point of 149 to 150 °C. `COC(=O)c1cccc2oc(CBr)nc12` gave a melting point of 110 to 113 °C. In the case of `CCC(CC)C(=O)Nc1ccco1`, the melting point is reported as 100 °C. In the case of `CCCCc1nc2cccc(C(=O)O)c2n1Cc1ccc2nc(-c3ccccc3-c3nnn[nH]3)ncc2c1`, the melting point is reported as 188 to 191 °C. Work on `N#CC1(NC(=O)c2ccccc2C(=O)O)CCCCC1` yielded a melting point of 154 to 156 °C. Work on `OCCOc1ccsc1` yielded a melting point of 38 to 39 °C. Work on `CCCCCCCCCCCCCCOc1ccccc1NC(=O)c1cc(Sc2nnnn2-c2cccc(C(=O)O)c2)c2ccccc2c1O` yielded a melting point of 136 to 138 °C. With `CC1NC(=NC2CNCCO2)N(CCO)C1C` (configuration not stated) the melting point was 108 to 109 °C. Work on `CCc1nn(C2CCCC2)c2c1CCNC2=O` yielded a melting point of 152 to 153 °C. In the case of `COc1ccc(S(=O)(=O)N(CC(N)=O)c2ccc(Cl)cc2C(O)c2ccccc2C(F)(F)F)cc1OC` (configuration not stated), the melting point is reported as 129 °C. Work on `CCOCS(=O)(=O)c1ccc(C(CC2CCCC2)C(=O)Nc2nc3ccc(OC)nc3s2)cc1` (configuration not stated) yielded a melting point of 158 to 160 °C. For `O=C1c2cccc(O)c2CN1C1CCN(CCC(c2ccccc2)c2ccccc2)CC1`, the melting point was 114 to 118 °C. `CC(O)CNCC(O)COc1ccccc1C#N` (configuration not stated) gave a melting point of 108 °C. With `CSc1cc(Cl)ccc1C(=O)CC#N` the melting point was 139 to 141 °C. In the case of `O=c1cc2c(nn1-c1ccccc1)-c1ccccc1CC2`, the melting point is reported as 155 to 157 °C. `O=C1NC(=O)C(Nc2cccc3ccccc23)S1` (configuration not stated) gave a melting point of 195 to 197 °C. Work on `N#Cc1ccccc1-c1cc(-c2cnc3nc(C(F)(F)F)cnn23)ccc1F` yielded a melting point of 168 to 174 °C. Compound `COc1ccc(Cc2ccc(-c3cnn4c(O)ncnc34)cc2)cc1` has a melting point of 296 to 298 °C. `Cn1c(=O)sc2cc(N3C[C@H](C(=O)NCCF)OC3=O)ccc21` gave a melting point of 201 to 203 °C. With `CN1C(=O)CC(=O)N(c2ccccc2)c2ccccc21` the melting point was 144 to 146 °C. `CCOC(=O)CCNC(=O)N1CCc2cc(S(=O)(=O)N3CCN(c4cccc(Cl)c4)CC3)ccc21` gave a melting point of 162 °C. Compound `CC(C)(/C=C/I)C(=O)Nc1ccc(Cl)cc1` has a melting point of 145 to 146 °C. Work on `Cc1[nH]c(=O)c2c(ccc3nc(Nc4c(Cl)cccc4Cl)n(C)c32)c1CCN1CCOCC1` yielded a melting point of 285 to 290 °C. Compound `CCN(CC)CCOc1ccc2ncn(/C=C/C(=O)OC)c(=O)c2c1` has a melting point of 131 to 133 °C. For `CCn1nc2c(N)nc3ccccc3c2c1CC1(F)CCOCC1`, the melting point was 275 to 277 °C. `O=S(=O)(Cc1ccccc1)c1nc2ccc(O)cc2s1` showed a melting point of 188 to 189 °C. For `CC(=O)NC(=O)C(Cl)Cc1ccc(OCC(C)(C)c2ccccc2)cc1` (configuration not stated), the melting point was 125 to 126 °C. `Cc1ncsc1NC(=O)Nc1ccc(-n2nc(C3CC3)cc2C(F)(F)F)nc1` showed a melting point of 244 to 247 °C.
